Reference: patent US20090043378A1, “Biocompatible Polymer System for Extended Drug Release” (priority 2007, published 2009)
Converted amounts (≈) assume the structure as drawn.

Legend:
[1] = Octanol-water partition coefficient of zotarolimus; assay type: physicochemical
Source text: In one embodiment, the drug is zotarolimus (Formula 1) ([…], molecular weight=966.5 g/mol), a tetrazole-containing macrocyclic immunosuppressant. […] The mechanism of action of zotarolimus is binding to FKBP12, leading to the formation of a trimeric complex with the protein kinase mTOR (mammalian target of rapamycin) thereby inhibiting its activity. Inhibition of mTOR results in the inhibition of protein phosphorylation events associated with translation of mRNA and cell cycle control.

physchem = assay type: physicochemical
Source text: The hydrophobicity of zotarolimus enhances its absorption across the cellular membrane leading to inhibition of neointimal proliferation of the target tissues.

Monocytic U937 cells = assay: Monocyte adhesion to polymer coated wells (calcein uptake); assay type: cell-based
Experimental: Monocytic U937 cells were purchased from ATCC Cell Biology Collection and maintained in culture according to vendor recommendations. U937 cells were seeded at 1×10^5/well onto polymer coated 96 well plates. The cells were stimulated with lipopolysaccharide (LPS) (100 ng/mL) and phorbol-12-myristate-13-acetate (PMA) (100 ng/mL) to induce differentiation and inflammatory activation. […] Adhesion of U937 cells to the polymer scaffold was assessed by calcein uptake as detailed in the following protocol. U937 cells were fluorescently labeled by incubation with calcein (1 mg/mL) for 30 minutes. Calcein is a fluorescent dye hydrolyzed by esterases in viable cells. The percent uptake of calcein is directly proportional to the number of viable cells in the well. The percent of cell adhesion was determined by reading the fluorescent measurements prior to and after gentle PBS washing of the adherent monocytes from the polymer coated plates. […] To calculate the relative percent adhesion, the ratio between the fluorescent measurement prior to and after gentle PBS washing of the adherent monocytes from the polymer coated plates was first determined. […]
In order to evaluate, in vitro, the polymers potential to elicit an inflammatory response, the adhesion of activated monocytes to the components of various polymers were measured, individually and in combination (C10, C19, and C10/C19).

Compound	octanol-water partition coefficient ([1]; pH 6.5)	octanol-water partition coefficient ([1]; pH 7.4)	solubility (physchem; pH 6.5, aqueous buffer) [µg/mL]	solubility (physchem; pH 7.4, aqueous buffer) [µg/mL]	monocyte adherence, fold induction over non-stimulated, negative control cells (Monocytic U937 cells) [fold]
CO[C@H]1C[C@@H]2CC[C@@H](C)[C@@](O)(O2)C(=O)C(=O)N2CCCC[C@H]2C(=O)O[C@H]([C@H](C)C[C@@H]2CC[C@H](n3cnnn3)[C@H](OC)C2)CC(=O)[C@H](C)/C=C(\C)[C@@H](O)[C@@H](OC)C(=O)[C@H](C)C[C@H](C)/C=C/C=C/C=C/1C [zotarolimus]	> 4.5	> 4.5	0.47 (≈ 0.486 µM)	0.53 (≈ 0.549 µM)	–
Poly(butyl methacrylate) [PBMA]	–	–	–	–	12.6
